Results reported in patent publication US12409181B2, “Treatment for aortic aneurysms” (THE REGENTS OF THE UNIVERSITY OF CALIFORNIA, priority 2019, dated 2025).
“Also recorded” adds a separate entry of the source.

Tests used:
Prkg1^RQ/+ mice = assay: Transverse aortic constriction (TAC) with N-acetylcysteine treatment; assay type: in vivo
aortic rings = assay: Arterial ring isometric tension measurements; set-up: species or system mice
Protocol: Arterial Ring Isometric Tension Measurements. Isometric tension in aortas was measured as previously described,^64 with minor modifications. Thoracic aortas were dissected in Krebs-Henseleit solution, cleaned of any adherent connective tissue, and cut into 1.5-2 mm segments. Rings with intact endothelium were mounted in a wire myograph over 40 μm wires, set at a resting tension of 0.5 g, and allowed to equilibrate at 37° C. for 45 min with intermittent washes every 15 min. After equilibration, aortas were treated with 40 mM K^+-solution. For vascular relaxation by acetylcholine (Sigma) or 8-(4-chlorophenylthio)cGMP (8-CPT-cGMP, BioLog), each aortic ring was pre-contracted to generate ˜0.15 g contraction by treatment with prostaglandin-F2α (PGF2α 2-8 μM, Thermo-Fisher). The degree of relaxation was calculated as a percent of PGF2α-induced contraction.

CC(=O)N[C@@H](CS)C(=O)O [NAC, N-acetylcysteine]
aortic pressure gradients after TAC surgery (Prkg1^RQ/+ mice; NAC-treated mice): did not affect | pre-stenotic aortic dilation after TAC (Prkg1^RQ/+ mice; NAC-treated mice): did not affect | survival after TAC compared to untreated mice (Prkg1^RQ/+ mice; NAC-treated mutant mice, 14 d after TAC): trend towards improved survival; also recorded: its effect on mortality was limited | TAC-induced aortic pathological changes, including media thinning (Prkg1^RQ/+ mice; Prkg1^RQ/+ mice, 1 mg/ml NAC in drinking water four weeks prior to and two weeks after TAC): largely prevented; also recorded: effective in ameliorating aortic wall injury after TAC | oxidative stress after TAC (Prkg1^RQ/+ mice; Prkg1^RQ/+ mice, NAC four weeks prior to and two weeks after TAC): reduced oxidative stress | effect in wild type mice after TAC (Prkg1^RQ/+ mice; wild type mice, NAC four weeks prior to and two weeks after TAC): no obvious effect

prostaglandin F2α
concentration required to pre-contract aortic rings, mutant mice (aortic rings; eight month-old Prkg1^RQ/+ mice, n=5 vessels): 2.27 ± 0.86 µM | concentration required to pre-contract aortic rings, wild type mice (aortic rings; eight month-old wild type mice, n=5 vessels): 2.15 ± 0.17 µM

Nc1nc2c(nc(Sc3ccc(Cl)cc3)n2[C@@H]2O[C@@H]3COP(=O)(O)O[C@H]3[C@H]2O)c(=O)[nH]1 [8-CPT-cGMP, 8-(4-chlorophenylthio)cGMP]
relaxation of pre-contracted aortic rings in response to the agent (aortic rings; Prkg1^RQ/+ versus wild type aortas, rings pre-contracted with PGF2α): reduced in the mutant mice compared to wild type mice
